Experimental data reported in ChEMBL document CHEMBL1201862, “PubChem BioAssay data set” (2004).
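In this assay, cells in 96-well plates receive the compound at five concentrations for 48 hours. Endpoints are linearly interpolated between the surrounding concentrations. Abbreviation: GI50, concentration required for 50% inhibition of growth.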 Activity calls are given as the source filed them. No stated cut-off is given here; in the data, active = GI50 up to about 1.1 µM and inactive = higher.

Tests used:
Assay in all cases: NCI tumour cell line growth inhibition, 48 h
[1] = test system: OVCAR-3
[2] = test system: SF-295
[3] = test system: HCT-116
[4] = test system: MDA-MB-231
[5] = test system: MDA-MB-435
[6] = test system: OVCAR-5
[7] = test system: KM12
[8] = test system: MOLT-4
[9] = test system: SF-268
[10] = test system: M14
[11] = test system: SN12C
[12] = test system: T47D
[13] = test system: HCC 2998
[14] = test system: K562
[15] = test system: SNB-75
[16] = test system: DU-145
[17] = test system: TK-10
[18] = test system: A549
[19] = test system: HL-60
[20] = test system: UACC-62

| Compound | GI50 [1] | GI50 [2] | GI50 [3] | GI50 [4] | GI50 [5] | GI50 [6] | GI50 [7] | GI50 [8] | GI50 [9] | GI50 [10] | GI50 [11] | GI50 [12] | GI50 [13] | GI50 [14] | GI50 [15] | GI50 [16] | GI50 [17] | GI50 [18] | GI50 [19] | GI50 [20] |
| --- | --- | --- | --- | --- | --- | --- | --- | --- | --- | --- | --- | --- | --- | --- | --- | --- | --- | --- | --- | --- |
| C=CC(O)(CBr)CCC(Br)C(C)(C)Cl (stereo unspecified) | > 10 µM (inactive) | > 10 µM (inactive) | > 10 µM (inactive) | > 10 µM (inactive) | > 10 µM (inactive) | > 10 µM (inactive) | > 10 µM (inactive) | > 10 µM (inactive) | > 10 µM (inactive) | > 10 µM (inactive) | > 10 µM (inactive) | > 10 µM (inactive) | > 10 µM (inactive) | > 10 µM (inactive) | > 10 µM (inactive) | > 10 µM (inactive) | > 10 µM (inactive) | > 10 µM (inactive) | – | – |
| COCN1C(=O)[C@@H]2CCCN2C(=O)c2ccc(Cl)cc21 | – | > 100 µM (inactive) | > 100 µM (inactive) | > 100 µM (inactive) | > 100 µM (inactive) | > 100 µM (inactive) | > 100 µM (inactive) | > 100 µM (inactive) | > 100 µM (inactive) | > 100 µM (inactive) | > 100 µM (inactive) | > 100 µM (inactive) | > 100 µM (inactive) | > 100 µM (inactive) | > 100 µM (inactive) | > 100 µM (inactive) | > 100 µM (inactive) | > 100 µM (inactive) | > 100 µM (inactive) | > 100 µM (inactive) |
| COc1cc(OC)cc(OCc2ccc3nc(-c4ccccc4)c(Cl)nc3c2)c1 | > 100 µM (inactive) | 22.5 µM (inactive) | 29 µM (inactive) | 7.16 µM (inactive) | 84.5 µM (inactive) | 49 µM (inactive) | 58.3 µM (inactive) | 25.9 µM (inactive) | 30.5 µM (inactive) | > 100 µM (inactive) | 40.7 µM (inactive) | 24.7 µM (inactive) | 32.7 µM (inactive) | – | 15.8 µM (inactive) | 52.7 µM (inactive) | 20.2 µM (inactive) | 49.9 µM (inactive) | 54.6 µM (inactive) | 32.4 µM (inactive) |
| CC(C)(C)c1cc2c(O)c(c1)C(c1ccccc1)c1cc(C(C)(C)C)cc(c1O)Cc1cc(C(C)(C)C)cc(c1O)C(c1ccccc1)c1cc(C(C)(C)C)cc(c1O)C2 (stereo unspecified) | > 100 µM (inactive) | > 100 µM (inactive) | > 100 µM (inactive) | > 100 µM (inactive) | > 100 µM (inactive) | > 100 µM (inactive) | > 100 µM (inactive) | > 100 µM (inactive) | > 100 µM (inactive) | > 100 µM (inactive) | > 100 µM (inactive) | > 100 µM (inactive) | > 100 µM (inactive) | > 100 µM (inactive) | – | > 100 µM (inactive) | > 100 µM (inactive) | > 100 µM (inactive) | 28.7 µM (inactive) | > 100 µM (inactive) |
| CC(C)c1ccc(NC(=S)NC(=O)c2ccccc2)cc1 | 18.1 µM (inactive) | 14.1 µM (inactive) | 22.2 µM (inactive) | 26.6 µM (inactive) | 13.8 µM (inactive) | 28.3 µM (inactive) | 18.2 µM (inactive) | 13.1 µM (inactive) | 21.4 µM (inactive) | 17.3 µM (inactive) | 34.6 µM (inactive) | 18.7 µM (inactive) | 16 µM (inactive) | 12.1 µM (inactive) | – | 23.2 µM (inactive) | 18.2 µM (inactive) | 30.8 µM (inactive) | 3.82 µM (inactive) | 13.6 µM (inactive) |
| O=C(CCCc1cccc2[nH]c3c(c12)CN(Cc1ccccc1)CC3)c1ccc(F)cc1 | > 100 µM (inactive) | > 100 µM (inactive) | 18.7 µM (inactive) | > 40.7 µM (inactive) | 40.6 µM (inactive) | > 48.1 µM (inactive) | 39.1 µM (inactive) | 15.3 µM (inactive) | > 100 µM (inactive) | 42 µM (inactive) | > 100 µM (inactive) | 15.6 µM (inactive) | 11.9 µM (inactive) | 7.01 µM (inactive) | > 62.7 µM (inactive) | > 100 µM (inactive) | > 100 µM (inactive) | > 95.9 µM (inactive) | – | 49.1 µM (inactive) |
| O=c1cc(-c2ccccc2)[nH]c2ccc(N3CCCCC3)cc12 | 0.0166 µM (active) | < 0.0117 µM (active) | < 0.0184 µM (active) | 0.0501 µM (active) | < 0.01 µM (active) | 4.35 µM (inactive) | 0.0142 µM (active) | 0.0605 µM (active) | 0.228 µM (active) | 0.0166 µM (active) | 0.0373 µM (active) | > 100 µM (inactive) | < 0.0224 µM (active) | < 0.0129 µM (active) | – | 0.0468 µM (active) | 0.998 µM (active) | 0.0488 µM (active) | < 0.0126 µM (active) | < 0.01 µM (active) |
| CC(C)(C)OC(=O)N1[C@@H]2Cc3ccc(N)cc3[C@@]1(C)c1ccccc12 | 20.8 µM (inactive) | 28.1 µM (inactive) | 18.7 µM (inactive) | 27.7 µM (inactive) | 16.8 µM (inactive) | 42.1 µM (inactive) | 33 µM (inactive) | 19 µM (inactive) | 37.3 µM (inactive) | 24 µM (inactive) | 16.8 µM (inactive) | 17.7 µM (inactive) | 21.3 µM (inactive) | 24.8 µM (inactive) | – | 30.3 µM (inactive) | 35.5 µM (inactive) | 35.6 µM (inactive) | 20.1 µM (inactive) | 20.6 µM (inactive) |
| O=[N+]([O-])/C(C(Cl)=C(Cl)Cl)=C(/Sc1ccccc1)N1CCOCC1 | 2.69 µM (inactive) | 19.5 µM (inactive) | 1.67 µM (inactive) | 5.12 µM (inactive) | 2.59 µM (inactive) | 16.4 µM (inactive) | 13.4 µM (inactive) | 2 µM (inactive) | 4.46 µM (inactive) | 3 µM (inactive) | 4.76 µM (inactive) | 3.02 µM (inactive) | 15.3 µM (inactive) | 1.74 µM (inactive) | – | 12.6 µM (inactive) | 6.68 µM (inactive) | 18.6 µM (inactive) | 1.99 µM (inactive) | 3.62 µM (inactive) |
| Cn1c(=O)c2c(n(C)c1=O)n1c(=O)c3ccccc3nc1n2C | > 100 µM (inactive) | 38 µM (inactive) | > 100 µM (inactive) | > 100 µM (inactive) | > 100 µM (inactive) | > 100 µM (inactive) | > 100 µM (inactive) | > 100 µM (inactive) | 72.3 µM (inactive) | > 100 µM (inactive) | > 100 µM (inactive) | > 100 µM (inactive) | > 100 µM (inactive) | > 100 µM (inactive) | 39.4 µM (inactive) | > 100 µM (inactive) | > 100 µM (inactive) | > 100 µM (inactive) | – | 46.9 µM (inactive) |
| Cc1csc(NNC(=O)Nc2ccccc2)n1 | – | > 100 µM (inactive) | > 100 µM (inactive) | > 100 µM (inactive) | > 100 µM (inactive) | > 100 µM (inactive) | > 100 µM (inactive) | – | > 100 µM (inactive) | > 100 µM (inactive) | > 100 µM (inactive) | > 100 µM (inactive) | > 100 µM (inactive) | > 100 µM (inactive) | > 100 µM (inactive) | > 100 µM (inactive) | – | > 100 µM (inactive) | > 100 µM (inactive) | > 100 µM (inactive) |
